Laboratory results: publication PMC9369442, “Synthetic Peucedanocoumarin IV Prevents α-Synuclein Neurotoxicity in an Animal Model of Parkinson’s Disease” (International Journal of Molecular Sciences, 2022)

Experiments:
[1] = system: SH-SY5Y cells with Tet-Off conditional expression of β23; assay: Trypan blue exclusion cell viability assay, Tet-Off β23 expression; format: cell-based; details: for effect on β23-induced cytotoxicity: 1 μM, 24 h; for EC50: Homo sapiens, Tet-Off β23, trypan blue exclusion, read-out: median effective concentration, cytoprotection against β23 toxicity; for cytotoxicity of the compound at high concentrations: up to 4 µM
Experimental: (§1) Figure 1 Peucedanocoumarin IV (PCiv) inhibits β23 aggregations and cytotoxicity in SH-SY5Y cells. (A) Scheme showing the detailed experimental steps in the organic synthesis of racemic PCiv and racemic PCiii (rac-PCiii, and rac-PCiv). Both PCiii and PCiv used in this study are racemic forms. (B) Trypan blue exclusion cell viability assessment in SH-SY5Y cells with Tet-Off-induced β23 expressions. β23 was expressed for 24 h using the Tet-off system. Further expression of β23 was halted by doxycycline (Dox) treatment with simultaneous treatment of the PCiii, PCiv, or their synthetic intermediate, trans-khellatone (t-khellatone, 1 μM 24 h). Cell viability was assessed 24 h after doxycycline treatment (n = 5 per group). (C) Synthetic PCiv’s protective effect on Tet-Off-expressed β23 toxicity in SH-SY5Y cells compared with peucedanocoumarin III (PCiii) determined by trypan blue exclusion assay. (D) The degradation of β23 monitored by Western blot at 37 h after doxycycline (200 ng/mL) treatment. The representative Western blot image of HA (β23) in SH-SY5Y cells treated with synthetic PCiii, synthetic PCiv (1 μM, 37 h), or DMSO as a vehicle. (E) Quantification of HA (β23) expression in SH-SY5Y cells from the indicated experimental groups in panel D (n = 3 experiments per group). (F) Representative immunofluorescence of steady state HA (β23) expression in SH-SY5Y cells expressing Tet-Off regulatable reporter mCherry and HA-tagged β23. HA-β23 was expressed for 24 h using the Tet-off system. Further expression of β23 was halted by Dox treatment in the presence of PCiii or PCiv (1 μM, 37 h). (G) Quantification of HA (β23) immunofluorescence signal in mCherry positive SH-SY5Y cells in each experimental group (n = 32 cells from three separate experiments per group). The data are expressed as means ± SEMs. * p < 0.05, ** p < 0.01, *** p < 0.001, and **** p < 0.0001, ANOVA test followed by Tukey’s post hoc analysis. Two-way ANOVA was used in panel C.
Human neuroblastoma SH-SY5Y cells (ATCC, Manassas, VA, USA) were grown in complete media containing DMEMs, 10% fetal bovine serum (vol/vol), and antibiotics (penicillin-streptomycin 100 U/mL, Thermo Fisher Scientific, Waltham, MA, USA). The atmospheric condition used to preserve the cells consisted of 5% CO2/95% air at 37 °C and maintained a humidified environment. X-tremeGENE HP transfection reagents (Roche, Basel, Switzerland) were used for transient transfection of DNA constructs (pCMV-tTA, TetP-β23, and pTet-dual2 [5]) following the manufacturer’s instructions.
SH-SY5Y cells were plated in 12-well plates at a density of 0.2 × 10^6 cells per well. Following transient transfection with the indicated constructs and subsequent treatment protocol, the cells were harvested by trypsinization, thereby yielding single-cell suspensions. The cells were washed twice with phosphate-buffered saline (PBS) and resuspended in serum-free DMEM. The resuspended cells were mixed with an equal volume of 0.4% trypan blue (w/v) and incubated for 2 min at room temperature. Live and dead cells were counted using a Countess II Automated Cell Counter (Life Technologies, Carlsbad, CA, USA) for assessing cell viability.

[2] = system: β23 (HA-tagged) in SH-SY5Y cells; assay: β23 clearance by Western blot and immunofluorescence of HA-tagged β23; format: cell-based, Human; details: 1 μM; for HA-β23 immunofluorescence signal in mCherry-positive transfected cells: 37 h
Experimental: as §1, with “HA-β23 was expressed for 24 h using the Tet-off system. Further expression of β23 was halted by Dox treatment in the presence of PCiii or PCiv (1 μM, 37 h).” left out, “Two-way ANOVA was used in panel C.” left out
Lysis buffer was added to the SH-SY5Y cells washed with ice-cold PBS (1% Nonidet P40 in PBS, pH 7.4) that was supplemented with protease/phosphatase inhibitors. […] The supernatants were quantified through BCA protein assessment. […] Next, band quantification was performed using ImageJ software. […]

SMILES	effect on β23-induced cytotoxicity [1]	EC50 [1]	cytotoxicity of the compound at high concentrations [1]	HA-β23 immunofluorescence signal in mCherry-positive transfected cells [2]	steady-state β23 expression levels (Western blot) ([2]; 37 h after doxycycline)
C/C=C(\C)C(=O)O[C@@H]1c2c(ccc3ccc(=O)oc23)OC(C)(C)[C@H]1OC(C)=O (relative stereo) [PCiii, peucedanocoumarin III]	potently prevented	318 nM	no obvious cytotoxicity	markedly reduced	
C/C=C(\C)C(=O)O[C@H]1[C@H](OC(C)=O)c2c(ccc3ccc(=O)oc23)OC1(C)C (relative stereo) [PCiv, trans-4′-acetyl-3′-tigloylkhellactone]	nearly equivalent cytoprotective biological function	204 nM	no obvious cytotoxicity	markedly reduced	markedly reduced
